The values below come from US12258337B2, “Bicyclic CX3CR1 receptor agonists” (Board of Regents, The University of Texas System, priority 2019, dated 2025).

Common to all, as to assay type: cell-based
One experiment addresses T1, mCX3CR1 (Mus musculus, UniProt Q9Z0D9).
T1 construct: expressed in transfected cells; stably expresses a Ca2+ sensitive photo-protein
T1 sequence (Q9Z0D9 1-354): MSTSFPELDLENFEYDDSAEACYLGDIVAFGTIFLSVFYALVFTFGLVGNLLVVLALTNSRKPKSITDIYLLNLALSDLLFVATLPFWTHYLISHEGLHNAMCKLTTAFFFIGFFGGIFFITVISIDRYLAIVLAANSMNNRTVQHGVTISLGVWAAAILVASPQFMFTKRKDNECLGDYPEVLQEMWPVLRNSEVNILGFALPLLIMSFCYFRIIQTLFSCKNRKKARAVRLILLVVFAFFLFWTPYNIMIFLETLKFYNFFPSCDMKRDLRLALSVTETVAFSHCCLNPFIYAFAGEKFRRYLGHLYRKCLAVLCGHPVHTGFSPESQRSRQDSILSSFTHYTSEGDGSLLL
Briefly: Ga16 assay, CX3CR1 agonism, Ca2+ sensitive photo-protein readout (FLIPRTETRA). As to conditions: mouse CX3CR1 cell line. The method, then:
(§1) Compounds (as well as stereoisomer(s) thereof and/or salt(s) thereof) were tested for CX3CR1 agonism in a cell based assay with fluorescent readout in Agonist Mode in dose response in quadruplicate with intra-plate modality).
(§2) Buffers and reagents. PBS (D-PBS without calcium and magnesium; EuroClone); Trypsin (Trypsin 0.05%, EDTA 0.02% in PBS; EuroClone); DMSO (Sigma); Standard tyrode buffer: in-house solution (130 mM NaCl, 5 mM KCl, 2 mM CaCl2), 1 mM MgCl2, 5 mM NaHCO3, 20 mM HEPES in water at pH 7.4; sterile filtered); Coelenterazine, native (Biosynth); stock 10 mM; Agonist: Recombinant Human Fractalkine (CX3CL1) (PeproTech); stock: 10 μM in standard tyrode buffer+BSA 0.1%; stored at −20° C.
(§3) Cell line. Human (hCX3CR1), mouse (mCX3CR1), and rat (rCX3CR1) were used for the assay.
(§4) Assay protocol. Experiments ere performed in 384 MTP format. Cells were seeded at 7,500 cells/well in 25 μl/well complete growth medium without selection antibiotics in 384-well plates. Twenty-four hours later, cells ere assayed for the response to various compounds using the Ca^2+ sensitive photo-protein stably expressed in the cells as readout.
(§5) The experiment was performed in a 384-well format according to the following procedure: • 24h after seeding, pre-incubate the cells at room temperature for 1 hour. • Then remove the culture medium. • Load cells with 20 μL/well of standard tyrode buffer+10 μM ceolenterazine. • Incubate cell plates for 3 hours at RT. • Inject 10 μL/w of 3× concentrated test compounds and controls in assay buffer at the FLIPRTETRA and monitor the kinetic response over a period of 90 seconds.
(§6) Data from FLIPRTETRA measurements were analyzed with the Genedata Screener© software. The following examples are meant to illustrate, but in no way to limit, the claimed invention.

For the next experiment, the target named is T2, rCX3CR1 (Rattus norvegicus, UniProt P35411).
T2 construct: expressed in transfected cells; stably expresses a Ca2+ sensitive photo-protein
T2 sequence (P35411 1-354): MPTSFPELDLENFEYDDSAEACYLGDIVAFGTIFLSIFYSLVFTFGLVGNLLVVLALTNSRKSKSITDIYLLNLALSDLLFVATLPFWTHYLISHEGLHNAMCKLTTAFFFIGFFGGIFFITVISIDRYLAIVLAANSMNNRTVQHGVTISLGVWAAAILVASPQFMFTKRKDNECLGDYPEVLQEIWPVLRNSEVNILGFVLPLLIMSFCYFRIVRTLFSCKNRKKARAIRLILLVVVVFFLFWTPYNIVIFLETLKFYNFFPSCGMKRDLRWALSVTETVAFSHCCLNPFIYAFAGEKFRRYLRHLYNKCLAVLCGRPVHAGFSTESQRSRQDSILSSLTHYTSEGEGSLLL
The description is as above. As to conditions: rat CX3CR1 cell line. How it is done: as §1, §2, §3, §4, §5, §6

In experiment [1] the target is T3, hCX3CR1 (Homo sapiens, UniProt P49238).
T3 sequence (P49238 1-355): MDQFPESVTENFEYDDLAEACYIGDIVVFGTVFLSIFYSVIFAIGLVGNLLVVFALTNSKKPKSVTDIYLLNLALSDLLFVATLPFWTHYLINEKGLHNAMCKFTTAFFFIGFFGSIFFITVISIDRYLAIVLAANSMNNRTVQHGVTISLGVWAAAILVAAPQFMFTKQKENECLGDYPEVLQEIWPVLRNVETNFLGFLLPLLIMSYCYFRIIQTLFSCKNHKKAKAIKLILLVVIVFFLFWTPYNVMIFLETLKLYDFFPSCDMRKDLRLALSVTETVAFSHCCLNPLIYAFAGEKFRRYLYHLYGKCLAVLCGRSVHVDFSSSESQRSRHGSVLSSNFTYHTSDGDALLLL
The experiment is described as above. On the set-up: expressed in transfected cells; stably expresses a Ca2+ sensitive photo-protein. Particulars: human CX3CR1 cell line. The method, then: as §1, §2, §3, §4, §5, §6

The target in experiment [2] is T3, hCX3CR1. Briefly: ChAMPion assay (CHO ChAMPion/CX3CR1 K1.6, cAMP/CNG channel, photoprotein luminescence). On the set-up: expressed in transfected cells; stably expresses a Ca2+ sensitive photo-protein. Particulars: ChAMPion assay, CHO ChAMPion/CX3CR1 K1.6, Forskolin 3 μM; read-out: hCX3CR1 agonism EC50. The method, then:
Buffers and reagents. PBS (D-PBS without calcium and magnesium; EuroClone); Trypsin (Trypsin 0.05%, EDTA 0.02% in PBS; EuroClone); DMSO (Sigma); Tyrode buffer Ca^2+ free: in-house solution (130 mM NaCl, 5 mM KCl, 1 mM MgCl^2, 5 mM NaHCO3, 20 mM HEPES (pH 7.4); sterile filtered and autoclaved); Tyrode buffer 10 mM Ca^2+: in-house solution (130 mM NaCl, 5 mM KCl, 10 mM CaCl2), 1 mM MgCl2, 5 mM NaHCO3, 20 mM HEPES, in water at pH 7.4, sterile filtered); Coelenterazine, native (Biosynth); stock 10 mM; Agonist: Recombinant Human Fractalkine (CX3CL1) (PeproTech); stock: 10 μM in standard Tyrode buffer/BSA 01%; stored at −20° C.
Cell line. The final clone for the hCX3CR1 assay was CHO ChAMPion/CX3CR1 K1.6. ChAMPion technology is based on the co-expression of a Ca^2+ sensitive photoprotein and of a cyclic nucleotide-gated (CNG) channel acting as a cAMP biosensor in a CHO-K1 cell line. CNG channels are non-selective ligand gated cation channels that can be opened by the direct interaction with either cAMP or cGMP, at the intracellular C-terminus site of the channel. Channel opening allows the flux of extracellular calcium into the cell cytoplasm and its transient elevation can be recorded by means of several different calcium indicators. In the chAMPion system, the CNG channel has been modified to display sensitivity to cAMP levels in the physiological range. In addition the calcium influx through the opened channel is immediately detected by the recording of the photoprotein-emitted flash type luminescence signal.
The chAMPion cell line system can monitor the activation of transfected Gαi-coupled receptors, which elicit changes in 3,‘5’-adenosine cyclic monophosphate (cAMP) levels, which in turn is responsible for CNG opening and consequent Ca^2+ influx.
Assay protocol. Experiments were performed in 384 MTP format. Cells were seeded at 10,000 cells/well in 25 μL/well complete growth medium without selection antibiotics in 384-well plates. Twenty-four hours later, cells were assayed for the response to various compounds using the Ca^2+ sensitive photo-protein stably expressed in the cells as readout.
The experiment was performed in a 384-well format according to the following procedure: • 24h after seeding, pre-incubate the cells at room temperature for 1 hour. • Then remove the culture medium. • Load cells with 20 μL/well of Ca^2+ free tyrode buffer+ceolenterazine 5 μM. • Incubate cell plates for 4 hours at RT. • 10 μl/well of 3× concentrated compounds in Ca^2+ free tyrode buffer+Forskolin 9 μM (final Forskolin concentration=3 μM) are applied to the cells (at 10 μl/s). Ten minutes later a second injection is performed: 10 μl/well of Ca^2+ free tyrode buffer+BSA 0.04% (final BSA concentration=0.01%). Twenty minutes later a third injection is performed: 20 μl/well of 10 mM Ca^2+ tyrode buffer (final Ca^2+ concentration was 3.3 mM) and luminescence is recorded for 90 seconds.
(§7) Data from FLIPRTETRA measurements are analyzed with the Genedata Screener© software.

In experiment [3] the target is T3, hCX3CR1. Briefly: Suchi5 assay (HEK/NatClytin/CNG/Suchi5 transiently transfected hCX3CR1, Fluo-8 Ca2+ readout). On the set-up: expressed in transfected cells; stably expresses a Ca2+ sensitive photo-protein. As to conditions: Suchi5 assay, HEK/NatClytin/CNG/Suchi5 transfected with hCX3CR1; read-out: hCX3CR1 agonism EC50. How it is done:
Buffers and reagents. PBS (D-PBS without calcium and magnesium; EuroClone); Trypsin (Trypsin 0.05%, EDTA 0.02% in PBS; EuroClone); Opti-MEM medium (Thermo Fisher); DMSO (Sigma); Standard tyrode buffer: in-house solution (130 mM NaCl, 5 mM KCl, 2 mM CaCl2), 1 mM MgCl2, 5 mM NaHCO3, 20 mM HEPES in water at pH 7.4; sterile filtered); Screen Quest™ Fluo-8 No Wash Calcium Assay Kit (AAt Bioquest®); Lipofectamine® 2000 Reagent (Thermo Fisher); Agonist: Recombinant Human Fractalkine (CX3CL1) (PeproTech); stock: 10 μM in standard Tyrode buffer/BSA 01%; stored at −20° C.
Cell line. The final cell line for CX3CR1-Suchi5 assay is HEK/NatClytin/CNG/Suchi5 transiently transfected hCX3CR1 cDNA. In this cell line native Gαi signaling is switched to Gαq pathway thanks to the overexpression of a Gαiq chimeric G protein (called Suchi5) to direct Gαi activation towards Ca^2+ release for measurement.
Assay protocol. Experiments are performed in 384 MTP format. Transiently transfected cells are seeded at 20,000 cells/well in 25 μl/well Opti-MEM medium without selection antibiotics in 384-well plates. 4-5-hours later 25 μL/well of complete medium with 20% of FBS are added to the cells. Twenty-four hours later, cells are assayed for the response to various compounds using a fluorescent Ca^2+ sensitive dye (FLUO8-No Wash Dye) as readout.
The experiment is performed in a 384-well format according to the following procedure: • 24h after seeding, remove the culture medium. • Load cells with 20 μL/well of 0.5X FLUO-8 No Wash Dye diluted in assay buffer. • Incubate cell plates for 1 hour at RT. • Inject 10 μL/w of 3× concentrated test compounds and controls in assay buffer at the FLIPRTETRA and monitor the kinetic response over a period of 90 seconds.
as §7

Each structure is given as a SMILES string.

As for `O=C(NCC1(CN2CCCC2)CCCCC1)c1cc2c(s1)CCCCCC2` [Example 18, N-[[1-(pyrrolidin-1-ylmethyl)cyclohexyl]methyl]-4,5,6,7,8,9-hexahydrocycloocta[b]thiophene-2-carboxamide], the EC50 was 24.9 µM at mCX3CR1, 23.7 µM on rCX3CR1, 11 µM on hCX3CR1 [1] and 0.94 µM at hCX3CR1 [2].
For `CC(C)OC1CCN(CC2(CNC(=O)c3cc4c(s3)CCCCCC4)CCC2)CC1` [Example 51, N-[[1-[(4-propan-2-yloxypiperidin-1-yl)methyl]cyclobutyl]methyl]-4,5,6,7,8,9-hexahydrocycloocta[b]thiophene-2-carboxamide], the half-maximal effective concentration (EC50) at mCX3CR1 was 15.4 µM; on rCX3CR1, 34.8 µM; at hCX3CR1 [1], 15.7 µM; at hCX3CR1 [3], 18.4 µM.
Consider `CC1(O)CCCN(CC2(CNC(=O)c3cc4c(s3)CCCCCC4)CCC2)C1` (stereo not shown) [Example 59, N-[[1-[(3-hydroxy-3-methylpiperidin-1-yl)methyl]cyclobutyl]methyl]-4,5,6,7,8,9-hexahydrocycloocta[b]thiophene-2-carboxamide], for which the EC50 on mCX3CR1 was 9 µM; on rCX3CR1, 9.2 µM; at hCX3CR1 [1] it was 11.9 µM; at hCX3CR1 [3] it was 1 µM.
With `CC1CCCC1(CNC(=O)c1cc2c(s1)CCCCCC2)CN(C)C` (single isomer, unassigned) [Example 61, N-[[1-[(dimethylamino)methyl]-2-methylcyclopentyl]methyl]-4,5,6,7,8,9-hexahydrocycloocta[b]thiophene-2-carboxamide], the concentration giving a half-maximal response (EC50) at mCX3CR1 stood at 33.8 µM; on rCX3CR1 it was 15.2 µM; on hCX3CR1 [1], 13.4 µM; on hCX3CR1 [3], 6.8 µM.
In the case of `O=C(NCC1(CN2CCC(O)CC2)CCCOC1)c1cc2c(s1)CCCCCC2` (stereo not shown) [Example 45, N-[[3-[(4-hydroxypiperidin-1-yl)methyl]oxan-3-yl]methyl]-4,5,6,7,8,9-hexahydrocycloocta[b]thiophene-2-carboxamide], the concentration for a half-maximal effect (EC50) at mCX3CR1 came to 41.6 µM; on rCX3CR1, 18.7 µM; on hCX3CR1 [1], 14.3 µM; on hCX3CR1 [3], 14.1 µM.
As to `COC1(C)CCN(CC2(CNC(=O)c3cc4c(s3)CCCCCC4)CCC2)CC1` [Example 48, N-[[1-[(4-methoxy-4-methylpiperidin-1-yl)methyl]cyclobutyl]methyl]-4,5,6,7,8,9-hexahydrocycloocta[b]thiophene-2-carboxamide], the EC50 is 18.2 µM at mCX3CR1, 13.7 µM at rCX3CR1, 18.5 µM on hCX3CR1 [1] and 9.9 µM at hCX3CR1 [3].
Consider `O=C(NCC1(CN2CCC(O)C2)CCCC1)c1cc2c(s1)CCCCCC2` (single isomer, unassigned) [Example 63, N-[[1-[(3-hydroxypyrrolidin-1-yl)methyl]cyclopentyl]methyl]-4,5,6,7,8,9-hexahydrocycloocta[b]thiophene-2-carboxamide], for which the EC50 was 13.5 µM on mCX3CR1, 9.7 µM at rCX3CR1, 9.8 µM on hCX3CR1 [1] and 9.6 µM on hCX3CR1 [3].

Usually EC50 stands for the concentration needed to bring the measured effect to its halfway point.
